From PubChem BioAssay (NCI)
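Tested at 5 concentrations; 48 h exposure; 96-well plates; endpoints linearly interpolated, else capped at highest concentration. GI50 is the concentration that inhibits growth by half. The concentration for full growth arrest is given as TGI.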

How the values were obtained:
Experiment in all cases: growth of human tumour cells (NCI), 48 h
[1] = tested on: UACC-62 melanoma
[2] = tested on: PC-3 prostate
[3] = tested on: NCI-H460 lung
[4] = tested on: TK-10 renal
[5] = tested on: SK-OV-3 ovarian
[6] = tested on: NCI/ADR-RES ovarian
[7] = tested on: MOLT-4 leukemia
[8] = tested on: A498 renal
[9] = tested on: COLO 205 colon
[10] = tested on: HOP-62 NSCLC
[11] = tested on: A549 NSCLC
[12] = tested on: SR leukemia
[13] = tested on: SF-539 CNS
[14] = tested on: ACHN renal
[15] = tested on: HCT-116 colon
[16] = tested on: M14 melanoma
[17] = tested on: NCI-H522 lung
[18] = tested on: SNB-19 CNS
[19] = tested on: SW-620 colon
[20] = tested on: HOP-92 NSCLC
[21] = tested on: DU-145 prostate
[22] = tested on: HCT-15 colon
[23] = tested on: IGROV1 ovarian
[24] = tested on: NCI-H23 lung
[25] = tested on: HCC-2998 colon
[26] = tested on: MDA-MB-435
[27] = tested on: SK-MEL-2 melanoma
[28] = tested on: SF-268 CNS
[29] = tested on: OVCAR-5 ovarian
[30] = tested on: CAKI-1 renal
[31] = tested on: OVCAR-8 ovarian
[32] = tested on: 786-0 renal
[33] = tested on: HS 578T breast
[34] = tested on: RXF 393 renal
[35] = tested on: RPMI-8226 leukemia
[36] = tested on: OVCAR-3 ovarian
[37] = tested on: T-47D breast
[38] = tested on: HT29 colon
[39] = tested on: UO-31 renal
[40] = tested on: SK-MEL-5 melanoma
[41] = tested on: MDA-MB-231 breast
[42] = tested on: HL-60(TB) leukemia
[43] = tested on: UACC-257 melanoma
[44] = tested on: SNB-75 CNS
[45] = tested on: MCF7 breast
[46] = tested on: OVCAR-4 ovarian
[47] = tested on: EKVX NSCLC
[48] = tested on: NCI-H226 lung
[49] = tested on: SK-MEL-28 melanoma
[50] = tested on: K-562 leukemia
[51] = tested on: SF-295 CNS
[52] = tested on: SN12C renal
[53] = tested on: U251 CNS
[54] = tested on: MALME-3M melanoma
[55] = tested on: KM12 colon
[56] = tested on: LOX IMVI melanoma
[57] = tested on: CCRF-CEM leukemia

## N#Cc1ccc(/C=N/NC(=O)CSCC(=O)N/N=C/c2ccc(C#N)cc2)cc1
[1]
  TGI: > 100 µM
[2]
  TGI: > 100 µM
[3]
  TGI: > 100 µM
[4]
  TGI: > 100 µM
[5]
  TGI: > 100 µM
[6]
  TGI: > 100 µM
[7]
  TGI: > 100 µM
[8]
  TGI: > 100 µM
[9]
  TGI: > 100 µM
[10]
  TGI: > 100 µM
[11]
  TGI: > 100 µM
[12]
  TGI: > 100 µM
[13]
  TGI: > 100 µM
[14]
  TGI: > 100 µM
[15]
  TGI: > 100 µM
[16]
  TGI: > 100 µM
[17]
  TGI: > 100 µM
[18]
  TGI: > 100 µM
[19]
  TGI: > 100 µM
[20]
  TGI: > 100 µM
[21]
  TGI: > 100 µM
[22]
  TGI: > 100 µM
[23]
  TGI: > 100 µM
[24]
  TGI: > 100 µM
[25]
  TGI: > 100 µM
[26]
  TGI: > 100 µM
[27]
  TGI: > 100 µM
[28]
  TGI: > 100 µM
[29]
  TGI: > 100 µM
[30]
  TGI: > 100 µM
[31]
  TGI: > 100 µM
[32]
  TGI: > 100 µM
[33]
  TGI: > 100 µM
[34]
  TGI: > 100 µM
[35]
  TGI: > 100 µM
[36]
  TGI: > 100 µM
[37]
  TGI: > 100 µM
[38]
  TGI: > 100 µM
[39]
  TGI: > 100 µM
[40]
  TGI: > 100 µM
[41]
  TGI: 81.7 µM
[42]
  TGI: > 100 µM
[43]
  TGI: > 100 µM
[44]
  TGI: 81.9 µM
[45]
  TGI: > 100 µM
[46]
  TGI: > 100 µM
[47]
  TGI: > 100 µM
[48]
  TGI: > 100 µM
[49]
  TGI: > 100 µM
[50]
  TGI: > 100 µM
[51]
  TGI: > 100 µM
[52]
  TGI: > 100 µM
[53]
  TGI: > 100 µM
[54]
  TGI: > 100 µM
[55]
  TGI: > 100 µM

## O=C(Nc1ccc(-n2cc(-c3ccncc3)c(-c3ccc(O)c(Cl)c3)n2)cc1)c1cc(Cl)cc(Cl)c1
[1]
  GI50: 3.01 µM
  TGI: > 32.5 µM
[2]
  GI50: 1.96 µM
  TGI: > 32.5 µM
[3]
  GI50: 2 µM
  TGI: > 32.5 µM
[4]
  GI50: 6.8 µM
  TGI: > 32.5 µM
[6]
  GI50: 1.92 µM
  TGI: > 32.5 µM
[7]
  GI50: 1.29 µM
  TGI: > 32.5 µM
[8]
  GI50: > 32.5 µM
  TGI: > 32.5 µM
[9]
  GI50: > 32.5 µM
  TGI: > 32.5 µM
[10]
  GI50: 2.87 µM
  TGI: > 32.5 µM
[11]
  GI50: 2.86 µM
  TGI: > 32.5 µM
[12]
  GI50: 1.36 µM
  TGI: > 32.5 µM
[13]
  GI50: 1.01 µM
  TGI: > 32.5 µM
[56]
  GI50: 0.853 µM
  TGI: > 32.5 µM
[14]
  GI50: 1.51 µM
  TGI: > 32.5 µM
[15]
  GI50: 1.57 µM
  TGI: > 32.5 µM
[16]
  GI50: 0.712 µM
  TGI: 1.68 µM
[17]
  GI50: 1.03 µM
  TGI: > 32.5 µM
[18]
  GI50: 2.95 µM
  TGI: > 32.5 µM
[19]
  GI50: 2.21 µM
  TGI: > 32.5 µM
[20]
  GI50: 1.28 µM
  TGI: > 32.5 µM
[21]
  GI50: 2.17 µM
  TGI: > 32.5 µM
[22]
  GI50: 0.908 µM
  TGI: > 32.5 µM
[23]
  GI50: > 32.5 µM
  TGI: > 32.5 µM
[24]
  GI50: 12.1 µM
  TGI: > 32.5 µM
[25]
  GI50: 11.8 µM
  TGI: > 32.5 µM
[26]
  GI50: 1.87 µM
  TGI: > 32.5 µM
[27]
  GI50: 0.899 µM
  TGI: 2.94 µM
[28]
  GI50: 3.85 µM
  TGI: > 32.5 µM
[29]
  GI50: > 32.5 µM
  TGI: > 32.5 µM
[30]
  GI50: 2.64 µM
  TGI: 28 µM
[31]
  GI50: 1.66 µM
  TGI: > 32.5 µM
[57]
  GI50: 1.45 µM
  TGI: > 32.5 µM
[33]
  GI50: 0.939 µM
  TGI: 6.52 µM
[34]
  GI50: 0.575 µM
  TGI: 1.13 µM
[35]
  GI50: 1.07 µM
  TGI: 6.18 µM
[36]
  GI50: 1.91 µM
  TGI: > 32.5 µM
[37]
  GI50: 18.6 µM
  TGI: > 32.5 µM
[38]
  GI50: 1.01 µM
  TGI: 5.11 µM
[39]
  GI50: 1.62 µM
  TGI: > 32.5 µM
[40]
  GI50: 0.877 µM
  TGI: 6.85 µM
[41]
  GI50: 0.647 µM
  TGI: 1.45 µM
[42]
  GI50: 1.6 µM
  TGI: > 32.5 µM
[43]
  GI50: 13.8 µM
  TGI: > 32.5 µM
[44]
  GI50: 1.35 µM
  TGI: > 32.5 µM
[45]
  GI50: 3.33 µM
  TGI: > 32.5 µM
[46]
  GI50: 2.56 µM
  TGI: > 32.5 µM
[47]
  GI50: 18.2 µM
  TGI: > 32.5 µM
[48]
  GI50: > 32.5 µM
  TGI: > 32.5 µM
[49]
  GI50: 3.19 µM
  TGI: > 32.5 µM
[50]
  GI50: 1.02 µM
  TGI: > 32.5 µM
[51]
  GI50: 1.05 µM
  TGI: 5.3 µM
[52]
  GI50: 2.44 µM
  TGI: > 32.5 µM
[53]
  GI50: 1.32 µM
  TGI: > 32.5 µM
[54]
  GI50: 2.66 µM
  TGI: > 32.5 µM
[55]
  GI50: 1.47 µM
  TGI: > 32.5 µM
